≈ marks a conversion by molar mass, not a printed value. Calls of active or inactive are those of the source. The calls are words filed in the database; no cut-off is given here.
What was measured:
Plenodomus lingam [1] = assay: Antifungal activity against Leptosphaeria maculans assessed as viable ascospore at 1 to 4 ug/ml after 1 week; format: functional, organism-based
Plenodomus biglobosus [2] = assay: Antifungal activity against Leptosphaeria biglobosa assessed as viable ascospore at 1 to 4 ug/ml after 1 week; format: functional, organism-based
Plenodomus biglobosus [3] = assay: Antifungal activity against Leptosphaeria biglobosa assessed as reduction of conidia production at 1 to 4 ug/ml after 2 weeks; format: functional, organism-based
Plenodomus biglobosus [4] = assay: Antifungal activity against Leptosphaeria biglobosa assessed as reduction of germ tube length at 4 ug/ml after 22 hr relative to control; format: functional; set-up: scale not given: the % may be the effect or the level left
Plenodomus biglobosus [5] = assay: Antifungal activity against Leptosphaeria biglobosa assessed as reduction of germ tube length at 1 ug/ml after 22 hr relative to control; format: functional; set-up: scale not given: the % may be the effect or the level left
Plenodomus lingam [6] = assay: Antifungal activity against Leptosphaeria maculans assessed as viable conidia at 2 to 4 ug/ml after 1 week; format: functional, organism-based
Plenodomus lingam [7] = assay: Antifungal activity against Leptosphaeria maculans assessed as ascospore germination at 1 to 4 ug/ml after 22 hr; format: functional
Plenodomus lingam [8] = assay: Antifungal activity against Leptosphaeria maculans assessed as reduction of germ tube length at 1 ug/ml after 22 hr relative to control; format: functional; set-up: scale not given: the % may be the effect or the level left
Plenodomus biglobosus [9] = assay: Antifungal activity against Leptosphaeria biglobosa assessed as inhibition of conidia germination at 4 ug/ml after 22 hr; format: functional
Plenodomus biglobosus [10] = assay: Antifungal activity against Leptosphaeria biglobosa assessed as ascospore germination at 1 to 4 ug/ml after 22 hr; format: functional
Plenodomus biglobosus [11] = assay: Antifungal activity against Leptosphaeria biglobosa assessed as viable conidia at 2 to 4 ug/ml after 1 week; format: functional, organism-based
Plenodomus lingam [12] = assay: Antifungal activity against Leptosphaeria maculans assessed as reduction of germ tube length at 2 ug/ml after 22 hr relative to control; format: functional; set-up: scale not given: the % may be the effect or the level left
Plenodomus lingam [13] = assay: Antifungal activity against Leptosphaeria maculans assessed as reduction of germ tube length at 4 ug/ml after 22 hr relative to control; format: functional; set-up: scale not given: the % may be the effect or the level left
Plenodomus lingam [14] = assay: Antifungal activity against Leptosphaeria maculans assessed as reduction of conidia production at 1 to 4 ug/ml after 2 weeks; format: functional, organism-based
Plenodomus biglobosus [15] = assay: Antifungal activity against Leptosphaeria biglobosa assessed as reduction of germ tube length at 2 ug/ml after 22 hr relative to control; format: functional; set-up: scale not given: the % may be the effect or the level left
Plenodomus lingam [16] = assay: Antifungal activity against Leptosphaeria maculans assessed as inhibition of conidia germination at 4 ug/ml after 22 hr; format: functional
Plenodomus lingam [17] = assay: Antifungal activity against Leptosphaeria maculans assessed as reduction of conidia production at 0.25 to 1 ug/ml after 2 weeks; format: functional, organism-based
Plenodomus biglobosus [18] = assay: Antifungal activity against Leptosphaeria biglobosa assessed as inhibition of mycelial growth after 7 days; format: functional; conditions: 168 h, read-out: ED50 (the source's name)
Plenodomus biglobosus [19] = assay: Antifungal activity against Leptosphaeria biglobosa assessed as reduction of germ tube length at 0.5 ug/ml after 22 hr relative to control; format: functional; set-up: scale not given: the % may be the effect or the level left
Plenodomus lingam [20] = assay: Antifungal activity against Leptosphaeria maculans assessed as reduction of germ tube length at 0.25 ug/ml after 22 hr relative to control; format: functional; set-up: scale not given: the % may be the effect or the level left
Plenodomus lingam [21] = assay: Antifungal activity against Leptosphaeria maculans assessed as viable ascospore at 0.25 to 1 ug/ml after 1 week; format: functional, organism-based
Plenodomus biglobosus [22] = assay: Antifungal activity against Leptosphaeria biglobosa assessed as viable ascospore at 0.25 to 1 ug/ml after 1 week; format: functional, organism-based
Plenodomus lingam [23] = assay: Antifungal activity against Leptosphaeria maculans assessed as inhibition of mycelial growth after 17 days; format: functional; conditions: 408 h, read-out: ED50 (the source's name)
Plenodomus lingam [24] = assay: Antifungal activity against Leptosphaeria maculans assessed as viable conidia at 0.25 to 1 ug/ml after 1 week; format: functional, organism-based
Plenodomus biglobosus [25] = assay: Antifungal activity against Leptosphaeria biglobosa assessed as viable conidia at 0.25 to 1 ug/ml after 1 week; format: functional, organism-based
Plenodomus lingam [26] = assay: Antifungal activity against Leptosphaeria maculans assessed as inhibition of conidia germination at 0.25 to 1 ug/ml after 22 hr; format: functional, organism-based
Plenodomus lingam [27] = assay: Antifungal activity against Leptosphaeria maculans assessed as ascospore germination at 0.25 to 1 ug/ml after 22 hr; format: functional
Plenodomus lingam [28] = assay: Antifungal activity against Leptosphaeria maculans assessed as reduction of germ tube length at 0.5 ug/ml after 22 hr relative to control; format: functional; set-up: scale not given: the % may be the effect or the level left
Plenodomus biglobosus [29] = assay: Antifungal activity against Leptosphaeria biglobosa assessed as reduction of germ tube length at 0.25 ug/ml after 22 hr relative to control; format: functional; set-up: scale not given: the % may be the effect or the level left
Plenodomus biglobosus [30] = assay: Antifungal activity against Leptosphaeria biglobosa assessed as reduction of conidia production at 0.25 to 1 ug/ml after 2 weeks; format: functional, organism-based
Plenodomus biglobosus [31] = assay: Antifungal activity against Leptosphaeria biglobosa assessed as ascospore germination at 0.25 to 1 ug/ml after 22 hr; format: functional
Plenodomus biglobosus [32] = assay: Antifungal activity against Leptosphaeria biglobosa assessed as inhibition of conidia germination at 0.25 to 1 ug/ml after 22 hr; format: functional, organism-based
Plenodomus lingam [33] = assay: Antifungal activity against Leptosphaeria maculans; format: functional; conditions: read-out: ED50 (the source's name)
Plenodomus biglobosus [34] = assay: Antifungal activity against Leptosphaeria biglobosa assessed as reduction of germ tube length at 1.5 ug/ml after 22 hr relative to control; format: functional; set-up: scale not given: the % may be the effect or the level left
Plenodomus biglobosus [35] = assay: Antifungal activity against Leptosphaeria biglobosa assessed as viable ascospore at 0.75 to 3 ug/ml after 1 week; format: functional, organism-based
Plenodomus biglobosus [36] = assay: Antifungal activity against Leptosphaeria biglobosa assessed as ascospore germination at 0.75 to 3 ug/ml after 22 hr; format: functional
Plenodomus lingam [37] = assay: Antifungal activity against Leptosphaeria maculans assessed as viable conidia at 0.75 to 3 ug/ml after 1 week; format: functional, organism-based
Plenodomus biglobosus [38] = assay: Antifungal activity against Leptosphaeria biglobosa assessed as inhibition of conidia germination at 0.75 to 3 ug/ml after 22 hr; format: functional, organism-based
Plenodomus lingam [39] = assay: Antifungal activity against Leptosphaeria maculans assessed as reduction of conidia production at 0.75 to 3 ug/ml after 2 weeks; format: functional, organism-based
Plenodomus biglobosus [40] = assay: Antifungal activity against Leptosphaeria biglobosa assessed as reduction of conidia production at 0.75 to 3 ug/ml after 2 weeks; format: functional, organism-based
Plenodomus biglobosus [41] = assay: Antifungal activity against Leptosphaeria biglobosa assessed as reduction of germ tube length at 3 ug/ml after 22 hr relative to control; format: functional; set-up: scale not given: the % may be the effect or the level left
Plenodomus biglobosus [42] = assay: Antifungal activity against Leptosphaeria biglobosa assessed as reduction of germ tube length at 0.75 ug/ml after 22 hr relative to control; format: functional; set-up: scale not given: the % may be the effect or the level left
Plenodomus biglobosus [43] = assay: Antifungal activity against Leptosphaeria biglobosa assessed as viable conidia at 0.75 to 3 ug/ml after 1 week; format: functional, organism-based
Plenodomus lingam [44] = assay: Antifungal activity against Leptosphaeria maculans assessed as reduction of germ tube length at 0.75 ug/ml after 22 hr relative to control; format: functional; set-up: scale not given: the % may be the effect or the level left
Plenodomus lingam [45] = assay: Antifungal activity against Leptosphaeria maculans assessed as inhibition of conidia germination at 0.75 to 3 ug/ml after 22 hr; format: functional, organism-based
Plenodomus lingam [46] = assay: Antifungal activity against Leptosphaeria maculans assessed as reduction of germ tube length at 1.5 ug/ml after 22 hr relative to control; format: functional; set-up: scale not given: the % may be the effect or the level left
Plenodomus lingam [47] = assay: Antifungal activity against Leptosphaeria maculans assessed as reduction of germ tube length at 3 ug/ml after 22 hr relative to control; format: functional; set-up: scale not given: the % may be the effect or the level left
Plenodomus lingam [48] = assay: Antifungal activity against Leptosphaeria maculans assessed as ascospore germination at 0.75 to 3 ug/ml after 22 hr; format: functional
Plenodomus lingam [49] = assay: Antifungal activity against Leptosphaeria maculans assessed as viable ascospore at 0.75 to 3 ug/ml after 1 week; format: functional, organism-based

## CCCCNC(=O)n1c(NC(=O)OC)nc2ccccc21 [BENOMYL]
Plenodomus lingam [1]
  Activity: inactive
Plenodomus biglobosus [2]
  Activity: inactive
Plenodomus biglobosus [3]
  Activity: Active
Plenodomus biglobosus [4]
  Activity: 81.6%
Plenodomus biglobosus [5]
  Activity: 4.5%
Plenodomus lingam [6]
  Activity: Active
Plenodomus lingam [7]
  Activity: 96%
Plenodomus lingam [8]
  Activity: 46.8%
Plenodomus biglobosus [9]
  inhibition at 4 µg/mL: 15%
Plenodomus biglobosus [10]
  Activity: 94%
Plenodomus biglobosus [11]
  Activity: Active
Plenodomus lingam [12]
  Activity: 68.3%
Plenodomus lingam [13]
  Activity: 65.8%
Plenodomus lingam [14]
  Activity: inactive
Plenodomus biglobosus [15]
  Activity: 85.5%
Plenodomus lingam [16]
  inhibition at 4 µg/mL: > 80%

## C[Si](Cn1cncn1)(c1ccc(F)cc1)c1ccc(F)cc1 [FLUSILAZOLE]
Plenodomus lingam [17]
  Activity: inactive
Plenodomus biglobosus [18]
  EC50: 0.67 µg/mL (≈ 2.12 µM)
Plenodomus biglobosus [5]
  Activity: 53.8%
Plenodomus biglobosus [19]
  Activity: 56.3%
Plenodomus lingam [20]
  Activity: 15.9%
Plenodomus lingam [8]
  Activity: 22.5%
Plenodomus lingam [21]
  Activity: inactive
Plenodomus biglobosus [22]
  Activity: inactive
Plenodomus lingam [23]
  EC50: 0.27 µg/mL (≈ 0.856 µM)
Plenodomus lingam [24]
  Activity: inactive
Plenodomus biglobosus [25]
  Activity: inactive
Plenodomus lingam [26]
  inhibition: Active
Plenodomus lingam [27]
  Activity: 96%
Plenodomus lingam [28]
  Activity: 22.1%
Plenodomus biglobosus [29]
  Activity: 56.9%
Plenodomus biglobosus [30]
  Activity: Active
Plenodomus biglobosus [31]
  Activity: 94%
Plenodomus biglobosus [32]
  inhibition: Active

## OC(Cn1cncn1)(c1ccc(F)cc1)c1ccccc1F (stereo not drawn) [FLUTRIAFOL]
Plenodomus lingam [33]
  EC50: 0.45 µg/mL (≈ 1.49 µM)

## CC(C)(C)C(O)(CCc1ccc(Cl)cc1)Cn1cncn1 (stereo not drawn) [TEBUCONAZOLE]
Plenodomus biglobosus [34]
  Activity: 63.4%
Plenodomus biglobosus [35]
  Activity: inactive
Plenodomus biglobosus [18]
  EC50: 1.45 µg/mL (≈ 4.71 µM)
Plenodomus biglobosus [36]
  Activity: 94%
Plenodomus lingam [37]
  Activity: inactive
Plenodomus biglobosus [38]
  inhibition: Active
Plenodomus lingam [39]
  Activity: inactive
Plenodomus lingam [23]
  EC50: 0.34 µg/mL (≈ 1.1 µM)
Plenodomus biglobosus [40]
  Activity: Active
Plenodomus biglobosus [41]
  Activity: 69.6%
Plenodomus biglobosus [42]
  Activity: 64.3%
Plenodomus biglobosus [43]
  Activity: inactive
Plenodomus lingam [44]
  Activity: 44%
Plenodomus lingam [45]
  inhibition: Active
Plenodomus lingam [46]
  Activity: 36.7%
Plenodomus lingam [47]
  Activity: 43.2%
Plenodomus lingam [48]
  Activity: 96%
Plenodomus lingam [49]
  Activity: inactive

Reference: ChEMBL document CHEMBL3046617, “Effects of fungicides on in vitro spore germination and mycelial growth of the phytopathogens Leptosphaeria maculans and L. biglobosa (phoma stem canker of oilseed rape)” (2010)
